Earlier results in publication PMC6044708 (ACS Omega, 2016).

Experiments:
[1] = tested on: P. aeruginosa; conditions: Gram (−), ATCC strain; reference compound
[2] = tested on: E. coli; conditions: Gram (−), ATCC strain; reference compound
[3] = tested on: B. subtilis; conditions: Gram (+), ATCC strain; reference compound
[4] = tested on: Gram-positive bacteria; conditions: comparison in words
[5] = tested on: S. aureus; conditions: Gram (+), ATCC strain; reference compound

Substance | MIC P. aeruginosa [1] | MIC E. coli [2] [µg/mL] | MIC B. subtilis [3] [µg/mL] | activity compared with the parent compound teixobactin (1) [4] | MIC S. aureus [5] [µg/mL] | activity compared with Arg10–teixobactin (2) [4]
Arg10–teixobactin [Arg10–teixobactin (2)] | no activity | 64 | 0.5 | 1 order of magnitude less active | 2 | –
Lys10–teixobactin | – | – | – | – | – | more active
